US12692232B2, “Indole carboxamide compound, preparation therefor and use thereof” (NANJING RUISHUNING MEDICAL TECHNOLOGY CO., LTD., priority 2021, dated 2026)

Tested on: lipopolysaccharide (LPS)-induced mouse model of sepsis
Assay: LPS-induced mouse model of sepsis, cardiopulmonary injury
Assay type: in vivo
Conditions: 4 hours after LPS 40 mg/kg; for LVFS: model 15.2 ± 2.8; for LVEF: model 34.3 ± 2.9; for lung coefficient: LPS model 7.24%±0.21%
Experimental: A lipopolysaccharide (LPS)-induced mouse model of sepsis was used to determine the preventive and therapeutic effect of the compounds of the present invention (as exemplified by compound 1-1 obtained in Example 1) on cardiopulmonary injury caused by sepsis. The method was as follows:
Grouping of animals: 50 male C57BL/6J mice aged 6-8 weeks. The mice were randomly divided into 5 groups of 10 mice each, namely, i) a solvent control group: each animal was administered 0.9% saline; ii) a sepsis model group (LPS group): each animal was injected intraperitoneally with LPS at a dose of 40 mg/kg; iii) a treatment group of medium-dose compound 1-1 of Example (LPS+25 mg/kg of compound 1-1 obtained in Example 1): each animal was administered compound 1-1 by gavage at a dose of 25 mg/kg, followed by intraperitoneal injection of LPS at a dose of 40 mg/kg 30 minutes later; iv) a treatment group of high-dose compound 1-1 of Example 1 (LPS+50 mg/kg of compound 1-1 group obtained in Example 1): each animal was administered compound 1-1 by gavage at a dose of 50 mg/kg, followed by intraperitoneal injection of LPS at a dose of 40 mg/kg 30 minutes later; v) a treatment group of medium-dose indole analogue 3-[(1-methyl-1H-indole-2-carbonyl)amino]propionic acid disclosed in CN2019107285315 (LPS+25 mg/kg of indole analogue 3-[(1-methyl-1H-indole-2-carbonyl)amino]propionic acid disclosed in CN2019107285315): each animal was administered the indole analogue by gavage at a dose of 25 mg/kg, followed by intraperitoneal injection of LPS at a dose of 40 mg/kg 30 minutes later. 4 hours after LPS stimulation, follow-up examinations were performed in each group.
Assessment of cardiac function in mice: 4 animals from each group were used for this assay. Isoflurane was used to maintain proper anesthesia and spontaneous breathing in the mice. The mice were placed in the supine position on a constant temperature pad at 37° C., and the extremities of the mice were connected to four electrodes with conductive paste and fixed on the ultrasonic operating table. The probe was coated with ultrasound coupling agent, and placed in the lower middle part of the left sternum of the mice, and the short-axis M-mode echocardiographic images of the left ventricle adjacent to the sternum were acquired in real time. The dynamic images of 10 consecutive cardiac cycles were acquired using M-mode echocardiography, and the images were stored and analyzed offline. Left ventricular ejection fraction (LVEF) and left ventricular fraction shortening (LVFS) were calculated from left ventricular end diastolic diameter (LVEDD) and left ventricular end systolic diameter (LVESD), respectively, using the formulae: LVEF=(LVEDD^3−LVESD^3)/LVEDD^3×100% and LVFS=(LVEDD−LVESD)/LVEDD×100%.
Determination of lung coefficient: after weighting, the mice were anesthetized with pentobarbital sodium injection, and the whole lung was removed from the thorax, and the tissue around the lung was removed. Surface moisture and blood stains were wiped dry with filter paper, and the wet weight of the lung was weighed. Lung coefficient=lung wet weight […]/mouse body weight (g)×100%.
Histopathological observations: after the mice were anaesthetized with pentobarbital sodium injection, the lungs and ventricles were removed by thoracotomy and fixed in 10% neutral formaldehyde (pH=7.4) for 2 days. Routine paraffin embedding, serial sectioning, H&E staining, neutral balsam sealing and microscopic observation were performed.

**Q.** Which LVFS (medium-dose 25 mg/kg gavage) does the source give for Cn1c(C(=O)NCCC(=O)O)cc2ccccc21 [3-[(1-methyl-1H-indole-2-carbonyl)amino]propionic acid, reference compound] here?
**A.** 22.9±4.0%

**Q.** What about the LVEF (medium-dose 25 mg/kg gavage) of the same molecule?
**A.** 53.2±3.8%

**Q.** What about the lung coefficient (medium-dose 25 mg/kg) of the same molecule?
**A.** 5.48%±0.15%

**Q.** Which results are given for CC(=O)OCCCNC(=O)c1c(C=O)c2ccccc2n1C [compound 1-1, propyl 3-[(3-formyl-1-methyl-1H-indole-2-carbonyl)amino]acetate]?
**A.** LVFS (high-dose 50 mg/kg gavage): 30.7±2.2%; LVEF (high-dose 50 mg/kg gavage): 63.8±3.9%; lung coefficient (high-dose 50 mg/kg): 4.93%±0.12%; LVFS (medium-dose 25 mg/kg gavage): 24.5±2.6%; LVEF (medium-dose 25 mg/kg gavage): 58.7±4.3%; lung coefficient (medium-dose 25 mg/kg): 5.16%±0.19%
